Assay results: US9073819B2, “Compositions, methods of use, and methods of treatment” (UNIVERSITY OF SOUTH FLORIDA, priority 2011, dated 2015)

Tests used:
GABAa receptors = experiment: Agonist activity on GABAa receptors, subtype not separated in the text; assay type: cell-based; settings: for potentiation of GABAA current / response from GABAa receptors, in words: relative to ketamine, various concentrations
Procedure: (§1) The GABAa subtypes α6β2δ and α1β2γ2 receptors are expressed at high levels exclusively within mature cerebellar granule neurons.
(§2) The ketamine analogues were tested for agonist activities at GABAa receptors both in the presence and absence of GABA (FIGS. 13-16). […] Oxime 2 was prepared both as a mono-salt and di-salt.

[1] = Lipophilicity relative to ketamine; assay type: physicochemical
[2] = molecular target: NMDA-A (NR1/2A) receptors (Homo sapiens, UniProt Q05586+Q12879); experiment: Antagonist activity on NMDA receptors (current blockade and recovery)
Chain of NMDA-A (NR1/2A) receptors (Q12879 23-1464, other chains not shown): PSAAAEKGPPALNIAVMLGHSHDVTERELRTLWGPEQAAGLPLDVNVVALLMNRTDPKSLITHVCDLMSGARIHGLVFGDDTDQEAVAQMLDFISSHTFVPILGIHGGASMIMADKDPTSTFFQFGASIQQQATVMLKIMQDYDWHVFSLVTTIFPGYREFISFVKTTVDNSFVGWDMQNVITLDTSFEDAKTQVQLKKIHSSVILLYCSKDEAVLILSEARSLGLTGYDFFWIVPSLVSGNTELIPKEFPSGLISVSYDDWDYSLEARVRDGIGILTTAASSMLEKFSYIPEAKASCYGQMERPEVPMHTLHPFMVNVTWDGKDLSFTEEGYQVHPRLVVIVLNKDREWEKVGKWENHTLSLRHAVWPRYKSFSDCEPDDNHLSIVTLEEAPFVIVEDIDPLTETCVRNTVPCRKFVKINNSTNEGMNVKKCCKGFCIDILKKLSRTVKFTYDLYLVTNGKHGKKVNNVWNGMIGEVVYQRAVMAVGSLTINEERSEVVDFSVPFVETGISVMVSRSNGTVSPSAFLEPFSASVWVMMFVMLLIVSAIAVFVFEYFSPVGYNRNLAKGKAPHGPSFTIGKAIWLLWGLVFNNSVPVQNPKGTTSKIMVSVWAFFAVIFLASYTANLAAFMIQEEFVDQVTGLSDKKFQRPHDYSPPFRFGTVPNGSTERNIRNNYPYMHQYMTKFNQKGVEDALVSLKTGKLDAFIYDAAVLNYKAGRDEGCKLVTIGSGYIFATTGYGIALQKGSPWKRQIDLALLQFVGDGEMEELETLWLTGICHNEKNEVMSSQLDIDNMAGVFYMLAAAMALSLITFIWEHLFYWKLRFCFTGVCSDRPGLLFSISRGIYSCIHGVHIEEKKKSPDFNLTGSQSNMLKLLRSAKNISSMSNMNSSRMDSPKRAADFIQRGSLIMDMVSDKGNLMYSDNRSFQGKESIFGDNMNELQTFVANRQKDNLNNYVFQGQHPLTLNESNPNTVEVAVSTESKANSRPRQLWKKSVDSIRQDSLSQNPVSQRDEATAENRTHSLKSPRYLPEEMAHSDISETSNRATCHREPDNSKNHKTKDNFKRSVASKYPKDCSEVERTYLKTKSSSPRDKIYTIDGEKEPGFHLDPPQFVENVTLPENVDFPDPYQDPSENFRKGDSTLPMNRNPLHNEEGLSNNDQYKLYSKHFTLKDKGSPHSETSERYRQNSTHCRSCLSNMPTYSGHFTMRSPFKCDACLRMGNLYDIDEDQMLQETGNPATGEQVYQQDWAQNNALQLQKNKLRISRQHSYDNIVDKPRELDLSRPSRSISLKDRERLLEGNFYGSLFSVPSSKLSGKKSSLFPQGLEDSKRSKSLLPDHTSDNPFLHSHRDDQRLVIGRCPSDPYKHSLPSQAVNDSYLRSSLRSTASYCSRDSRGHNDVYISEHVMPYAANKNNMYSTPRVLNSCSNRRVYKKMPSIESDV

[3] = molecular target: NMDA-B (NR1/2B) receptors (Homo sapiens, UniProt Q05586+Q13224); experiment: as above
[4] = molecular target: NMDA-D (NR1/2D) receptors (Homo sapiens, UniProt O15399+Q05586); experiment: as above
Chain of NMDA-D (NR1/2D) receptors (O15399 28-1336, other chains not shown): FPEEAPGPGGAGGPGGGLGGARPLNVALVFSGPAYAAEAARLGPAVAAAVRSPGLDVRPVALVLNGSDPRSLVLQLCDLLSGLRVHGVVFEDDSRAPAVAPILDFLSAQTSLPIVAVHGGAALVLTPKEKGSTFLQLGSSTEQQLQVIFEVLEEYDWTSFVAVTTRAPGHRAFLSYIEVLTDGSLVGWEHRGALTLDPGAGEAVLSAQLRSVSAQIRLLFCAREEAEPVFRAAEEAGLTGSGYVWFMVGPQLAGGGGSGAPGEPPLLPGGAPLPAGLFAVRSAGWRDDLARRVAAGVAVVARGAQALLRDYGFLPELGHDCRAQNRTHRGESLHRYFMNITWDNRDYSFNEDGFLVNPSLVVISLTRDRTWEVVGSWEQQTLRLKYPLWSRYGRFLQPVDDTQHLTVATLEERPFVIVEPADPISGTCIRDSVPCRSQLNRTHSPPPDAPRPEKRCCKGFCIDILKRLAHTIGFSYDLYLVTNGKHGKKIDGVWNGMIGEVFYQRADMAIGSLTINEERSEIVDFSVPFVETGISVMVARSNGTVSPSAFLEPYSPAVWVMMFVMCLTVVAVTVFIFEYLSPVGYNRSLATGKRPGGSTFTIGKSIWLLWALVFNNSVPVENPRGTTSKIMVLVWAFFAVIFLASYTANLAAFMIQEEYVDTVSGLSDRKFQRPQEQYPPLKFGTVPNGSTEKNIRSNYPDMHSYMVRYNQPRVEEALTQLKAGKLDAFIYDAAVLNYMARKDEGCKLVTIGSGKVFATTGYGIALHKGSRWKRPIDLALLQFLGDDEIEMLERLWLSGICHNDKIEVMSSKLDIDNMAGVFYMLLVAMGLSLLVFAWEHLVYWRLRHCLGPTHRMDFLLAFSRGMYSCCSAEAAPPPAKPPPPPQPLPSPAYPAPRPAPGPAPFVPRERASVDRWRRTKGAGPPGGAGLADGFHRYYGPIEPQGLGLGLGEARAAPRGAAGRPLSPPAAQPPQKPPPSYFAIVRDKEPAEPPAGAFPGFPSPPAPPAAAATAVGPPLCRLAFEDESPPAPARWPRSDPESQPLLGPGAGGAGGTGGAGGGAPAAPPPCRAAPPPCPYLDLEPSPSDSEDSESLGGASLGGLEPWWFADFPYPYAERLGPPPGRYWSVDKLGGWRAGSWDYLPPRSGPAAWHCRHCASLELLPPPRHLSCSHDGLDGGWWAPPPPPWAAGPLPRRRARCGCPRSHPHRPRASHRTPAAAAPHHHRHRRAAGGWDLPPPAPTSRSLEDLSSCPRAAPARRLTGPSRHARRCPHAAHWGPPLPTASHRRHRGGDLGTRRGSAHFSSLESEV

[5] = tested on: α6- and δ-containing GABAa receptors; settings: within anesthetically relevant concentration; cited from earlier work
[6] = tested on: NMDA receptors with NR2-A and NR2-B subunits; settings: cited from earlier work
α6β2δ GABAa receptors = molecular target: T1, α6β2δ GABAa receptors (Homo sapiens, UniProt O14764+P47870+Q16445); experiment: Agonist activity of ketamine analogues on GABAa receptors (potentiation of GABA current, oocyte expression system); assay type: cell-based
T1 construct: expressed in transfected cells
T1 sequence (Q16445 20-453): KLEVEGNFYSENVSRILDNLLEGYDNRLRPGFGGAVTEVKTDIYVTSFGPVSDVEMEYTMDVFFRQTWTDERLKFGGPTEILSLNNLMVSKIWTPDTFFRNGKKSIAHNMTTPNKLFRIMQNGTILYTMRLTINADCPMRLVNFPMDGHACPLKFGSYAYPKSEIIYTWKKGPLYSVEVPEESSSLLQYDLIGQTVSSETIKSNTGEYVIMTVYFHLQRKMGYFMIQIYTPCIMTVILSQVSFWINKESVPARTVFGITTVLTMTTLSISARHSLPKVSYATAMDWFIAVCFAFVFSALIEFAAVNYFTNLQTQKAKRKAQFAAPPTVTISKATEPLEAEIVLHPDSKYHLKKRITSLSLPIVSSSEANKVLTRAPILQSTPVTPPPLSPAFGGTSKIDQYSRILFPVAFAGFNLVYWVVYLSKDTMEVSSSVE
T1 sequence (P47870 25-512 limits assumed): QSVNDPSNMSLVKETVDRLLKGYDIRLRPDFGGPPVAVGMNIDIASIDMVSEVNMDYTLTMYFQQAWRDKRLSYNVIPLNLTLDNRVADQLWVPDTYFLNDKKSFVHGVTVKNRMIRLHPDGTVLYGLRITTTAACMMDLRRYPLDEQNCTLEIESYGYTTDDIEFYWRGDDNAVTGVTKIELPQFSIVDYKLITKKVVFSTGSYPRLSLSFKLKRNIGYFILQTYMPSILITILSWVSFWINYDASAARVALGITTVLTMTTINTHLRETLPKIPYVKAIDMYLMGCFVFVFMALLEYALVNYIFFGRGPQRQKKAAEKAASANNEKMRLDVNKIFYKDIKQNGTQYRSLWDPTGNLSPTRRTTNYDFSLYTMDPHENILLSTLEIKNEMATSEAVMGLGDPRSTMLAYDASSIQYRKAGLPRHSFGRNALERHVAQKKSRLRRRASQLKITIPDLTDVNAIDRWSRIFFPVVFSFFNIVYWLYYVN
T1 sequence (O14764 25-452): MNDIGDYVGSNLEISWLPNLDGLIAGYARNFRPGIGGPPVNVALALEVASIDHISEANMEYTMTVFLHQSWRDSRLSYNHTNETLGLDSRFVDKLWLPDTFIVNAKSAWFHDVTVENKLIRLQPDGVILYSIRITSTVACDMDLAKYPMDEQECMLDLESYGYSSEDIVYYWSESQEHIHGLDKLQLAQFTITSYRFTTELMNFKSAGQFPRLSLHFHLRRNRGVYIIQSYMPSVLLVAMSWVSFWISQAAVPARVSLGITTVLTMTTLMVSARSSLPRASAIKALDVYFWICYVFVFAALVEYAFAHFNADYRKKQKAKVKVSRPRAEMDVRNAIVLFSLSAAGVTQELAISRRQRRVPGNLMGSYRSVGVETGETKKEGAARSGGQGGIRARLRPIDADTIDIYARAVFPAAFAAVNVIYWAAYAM
Procedure: as §1, §2

NMDA-NR1/2C receptors = NMDA-NR1/2C receptors (Homo sapiens, UniProt Q05586+Q14957); experiment: Antagonist activity on NMDA receptors (current blockade and recovery); assay type: cell-based; settings: concentrations 0.1 to 200 μM
NMDA receptors = experiment: NMDA receptor blockade and recovery, subtypes not separated in the text; assay type: cell-based; settings: compared with ketamine
α1β2γ2 GABAa receptors = molecular target: T2, α1β2γ2 GABAa receptors (Homo sapiens, UniProt P14867+P18507+P47870); experiment: Agonist activity of ketamine analogues on GABAa receptors (potentiation of GABA current, oocyte expression system); assay type: cell-based; settings: for potentiation of GABAa current, in words: 20 μM
T2 construct: expressed in transfected cells
T2 sequence (P14867 28-456): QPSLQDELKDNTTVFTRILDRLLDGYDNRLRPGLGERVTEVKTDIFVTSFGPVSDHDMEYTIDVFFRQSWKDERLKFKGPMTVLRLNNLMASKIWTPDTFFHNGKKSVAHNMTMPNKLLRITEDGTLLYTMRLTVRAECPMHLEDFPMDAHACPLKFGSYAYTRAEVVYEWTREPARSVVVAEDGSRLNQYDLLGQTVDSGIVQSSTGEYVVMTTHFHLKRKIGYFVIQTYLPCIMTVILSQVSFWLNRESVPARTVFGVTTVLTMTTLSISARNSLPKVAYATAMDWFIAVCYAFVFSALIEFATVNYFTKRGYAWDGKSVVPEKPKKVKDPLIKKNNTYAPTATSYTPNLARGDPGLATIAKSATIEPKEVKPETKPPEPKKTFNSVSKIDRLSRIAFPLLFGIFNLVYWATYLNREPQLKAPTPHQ
T2 sequence (P47870 25-512 limits assumed): as the sequence (P47870 25-512 limits assumed) above
T2 sequence (P18507 40-475): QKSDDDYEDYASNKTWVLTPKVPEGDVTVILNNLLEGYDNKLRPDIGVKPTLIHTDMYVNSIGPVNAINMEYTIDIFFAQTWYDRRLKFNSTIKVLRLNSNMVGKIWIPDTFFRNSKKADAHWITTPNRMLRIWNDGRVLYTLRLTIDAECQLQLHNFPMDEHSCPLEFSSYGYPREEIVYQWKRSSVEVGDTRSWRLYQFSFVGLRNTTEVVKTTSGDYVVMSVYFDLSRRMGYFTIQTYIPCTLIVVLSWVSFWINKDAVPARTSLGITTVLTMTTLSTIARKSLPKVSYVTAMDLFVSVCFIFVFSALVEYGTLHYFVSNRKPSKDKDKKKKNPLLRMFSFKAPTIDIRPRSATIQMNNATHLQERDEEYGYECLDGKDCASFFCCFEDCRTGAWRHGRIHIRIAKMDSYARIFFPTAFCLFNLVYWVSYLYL
Procedure: as §1, §2

rats [7] = experiment: Tail suspension model of depression in rats; assay type: in vivo; settings: 5 mg/kg, tail suspension for 12 minutes
Procedure: Rats were dosed with ketamine oxime disalt and then tested in a model of depression. FIG. 24 illustrates an analysis of the antidepressant effects of ketamine and the oxime analogue at 5 mg/kg in rats undergoing tail suspension for 12 minutes. Note that immobility, giving up the struggle, is a sign of depression in this model. […] V is vehicle, A is ketamine, B is ketamine oxime analogue.

mice = settings: not significant when compared with ketamine; cited from earlier work
rats [8] = experiment: Dose response study of motor coordination in rats (open field behavior); assay type: in vivo
Procedure: The effect of ketamine oxime disalt on motor coordination in rats was evaluated.

[9] = NMDA-A (NR1/2A), drug concentration 50 μM, current post drug treatment
[10] = NMDA-B (NR1/2B), drug concentration 50 μM, current post drug treatment
[11] = NMDA-D (NR1/2D), drug concentration 50 μM, current post drug treatment
[12] = NMDA-NR1/2A, affinity study, concentrations 0.1 to 200 μM
[13] = NMDA-NR1/2B, affinity study, concentrations 0.1 to 200 μM
[14] = NMDA-NR1/2D, affinity study, concentrations 0.1 to 200 μM

| Compound | potentiation of GABAA current / response from GABAa receptors, in words (GABAa receptors) | inhibition at 50 µM [2] | % Recovery [2, 9] | inhibition at 50 µM [3] | % Recovery [3, 10] | inhibition at 50 µM [4] | % Recovery [4, 11] | IAverage = (IGABA + Drug/IGABA) 100 (α6β2δ GABAa receptors; Conc. 10 (μM)) | IAverage = (IGABA + Drug/IGABA) 100 (α6β2δ GABAa receptors; Conc. 20 (μM)) | IAverage = (IGABA + Drug/IGABA) 100 (α6β2δ GABAa receptors; Conc. 50 (μM)) | other results |
| --- | --- | --- | --- | --- | --- | --- | --- | --- | --- | --- | --- |
| CNC1(c2ccccc2Cl)CCCC/C1=N\OC (stereo not drawn) [Methoxime, 2-(2-Chloro-phenyl)-2-methylamino-cyclohexanone O-methyl-oxime] | did not evoke considerable response | 25.3% | 98.453% | 75.6% | 71.6417% | 57.5% | 82.5% | – | – | – | lipophilicity compared to ketamine [1]: increased lipophilicity |
| c1ccc(C2(N3CCCCC3)CCCCC2)cc1 [PCP, Phencyclidine, reference compound] | – | 88.4% | 93.953% | 96.8% | 59.677% | 87.5% | 66.666% | – | – | – | potentiation of GABA / tonic chloride current [5]: less active compared to ketamine |
| CNC1(c2ccccc2Cl)CCCC/C1=N\OCc1ccccc1 (stereo not drawn) [Benzoxime, 2-(2-Chloro-phenyl)-2-methylamino-cyclohexanone O-benzyl-oxime] | did not evoke considerable response | – | – | 41% | 77.639% | 49.3% | 79.452% | – | – | – | lipophilicity compared to ketamine [1]: increased lipophilicity |
| CNC1(c2ccc(OC)cc2Cl)CCCCC1=O (stereo not drawn) [G] | – | – | – | – | – | – | – | – | – | – | functional activity in comparison to ketamine [6]: appreciable activity |
| CNC1(c2ccccc2Cl)CCCC/C1=N\NC(N)=O (stereo not drawn) [Semicarbazone, 2-(2-Chloro-phenyl)-2-methylamino-cyclohexanone O-semicarbazone] | less sensitive than ketamine | 33.6% | – | 50.8% | 98.484% | 33.3% | – | – | – | – | – |
| CNC1(c2ccccc2Cl)CCCCC1O (stereo not drawn) [Hydroxy, 2-(2-Chloro-phenyl)-2-methylamino-cyclohexanol] | less sensitivity than ketamine | – | – | – | – | – | – | 100 n. amp | 100 n. amp | 123.98 n. amp | IAverage = (IGABA + Drug/IGABA) 100 (α6β2δ GABAa receptors; Conc. 100 (μM)): 135.41 n. amp |
| CNC1(c2ccccc2Cl)CCCC/C1=N\O (stereo not drawn) [Oxime, 2-(2-Chloro-phenyl)-2-methylamino-cyclohexanone oxime] | greatly potentiated | 89.2% | 86.1538% | 83% | 33.9622% | 86.7% | 52.272% | – | – | – | % Recovery (NMDA-NR1/2C receptors; affinity study): 44%; IC50 (NMDA-NR1/2C receptors): 747 nM; excitory post synaptic potential relative to ketamine (GABAa receptors; GABAa receptors): two times more excitory post synaptic potential than ketamine; lasting effect following wash of the drug (NMDA receptors): less than ketamine; lipophilicity compared to ketamine [1]: reduce lipophilicity; IC50 [2]: 5910 nM; IC50 versus ketamine ([2]; NMDA-A receptors): two fold higher; % Recovery [2, 12]: 74%; IC50 [3]: 1070 nM; % Recovery [3, 13]: 31%; IC50 [4]: 1070 nM; % Recovery [4, 14]: 68% |
| CNC1(c2ccccc2Cl)CCCC/C1=N\O (stereo not drawn) [Oxime (Monosalt), 2-(2-Chloro-phenyl)-2-methylamino-cyclohexanone oxime] | – | – | – | – | – | – | – | 128.2 n. amp | 193.746 n. amp | 312.04 n. amp | – |
| CNC1(c2ccccc2Cl)CCCCC1=O (stereo not drawn) [Ketamine, reference compound] | – | 57.6% | 84.745% | 80.5% | 34.564% | 88.1% | 26.19% | 116.2 n. amp | 157.1 n. amp | 218.3 n. amp | potentiation of GABAa current, in words (α1β2γ2 GABAa receptors): not able to potentiate any current; IAverage = (IGABA + Drug/IGABA) 100 (α1β2γ2 GABAa receptors; Conc. 20 (μM)): 0 n. amp; IAverage = (IGABA + Drug/IGABA) 100 (α1β2γ2 GABAa receptors; Conc. 50 (μM)): 105 n. amp; IAverage = (IGABA + Drug/IGABA) 100 (α1β2γ2 GABAa receptors; Conc. 100 (μM)): 119 n. amp; immobility in tail suspension, overall versus saline (rats [7]): No significant differences; potentiation of GABA / tonic chloride current [5]: potentiated the GABA current; IC50 [2]: 2320 nM; % Recovery [2, 12]: 28%; IC50 [3]: 820 nM; % Recovery [3, 13]: 19%; IC50 [4]: 760 nM; % Recovery [4, 14]: 24% |
| CC1(N)CCc2ccccc2C1=O (stereo not drawn) [2-amino-2-methyl-1-tetralone] | – | – | – | – | – | – | – | – | – | – | locomotor activity (mice): increased locomotor activity |
| CNC1(c2ccccc2Cl)CCCC/C1=N\O (stereo not drawn) [Oxime (Disalt), 2-(2-Chloro-phenyl)-2-methylamino-cyclohexanone oxime] | – | – | – | – | – | – | – | 165.4 n. amp | 239 n. amp | 418 n. amp | potentiation of GABAa current, in words (α1β2γ2 GABAa receptors): greatly potentiated; increase in potentiation relative to ketamine (α1β2γ2 GABAa receptors; 100 μM): nearly two fold increase; IAverage = (IGABA + Drug/IGABA) 100 (α1β2γ2 GABAa receptors; Conc. 20 (μM)): 122.678 n. amp; IAverage = (IGABA + Drug/IGABA) 100 (α1β2γ2 GABAa receptors; Conc. 50 (μM)): 153.41 n. amp; IAverage = (IGABA + Drug/IGABA) 100 (α1β2γ2 GABAa receptors; Conc. 100 (μM)): 214.5 n. amp; potentiation of GABAa current, in words (α6β2δ GABAa receptors; 20 μM): greater potentiation; increase in potentiation relative to ketamine (α6β2δ GABAa receptors; 50 μM): nearly two fold increase; effect on motor coordination (open field behavior) (rats [8]; 6 and 12 minute period following injection, dose response): CNS depressant effects; observed behaviour in vivo (rats [8]; at higher doses): loss of equilibrium, unsteady gait and immobility; righting reflex (an indication of anesthesia) (rats [8]; at higher doses): without loss of righting reflex; immobility in tail suspension, overall versus saline (rats [7]): No significant differences; immobility in tail suspension, slope analysis (rats [7]): decreased immobility |
| CC1(N)C(=O)CCc2ccccc21 (stereo not drawn) [1-amino-1-methyl-2-tetralone] | – | – | – | – | – | – | – | – | – | – | locomotor activity (mice): decreased |
| C[C@]12N[C@H](Cc3ccccc31)c1ccccc12 [Mk-801] | – | – | – | – | – | – | – | – | – | – | potentiation of GABA / tonic chloride current [5]: less active compared to ketamine |
